# From BindingDB's records for patent US9624198 (Bayer Pharma Aktiengesellschaft, 2017)
# Molecular target: T1, Alpha-2C adrenergic receptor (Homo sapiens, UniProt P18825)
# T1 sequence (P18825 whole entry): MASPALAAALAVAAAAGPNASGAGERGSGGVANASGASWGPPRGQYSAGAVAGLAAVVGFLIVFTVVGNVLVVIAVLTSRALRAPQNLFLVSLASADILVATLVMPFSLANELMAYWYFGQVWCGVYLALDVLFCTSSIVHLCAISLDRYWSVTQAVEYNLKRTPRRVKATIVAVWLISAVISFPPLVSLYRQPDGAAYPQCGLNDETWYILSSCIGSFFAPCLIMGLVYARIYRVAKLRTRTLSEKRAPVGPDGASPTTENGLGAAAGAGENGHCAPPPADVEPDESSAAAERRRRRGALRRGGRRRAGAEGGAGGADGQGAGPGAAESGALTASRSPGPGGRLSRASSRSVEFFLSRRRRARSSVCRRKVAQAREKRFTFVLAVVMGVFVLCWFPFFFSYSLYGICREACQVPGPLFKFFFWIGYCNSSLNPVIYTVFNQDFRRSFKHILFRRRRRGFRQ
# Test: In Vitro Assay
# Procedure: Antagonism against the adrenoreceptor α1A was tested using a recombinant human α1A receptor CHO cell line which additionally also recombinantly expresses mtAeq (mitochondrial aequorin). Antagonism against the adrenoreceptor α2A was tested using a recombinant human α2A-Gα16 receptor fusion protein CHO cell line (PerkinElmer Life Sciences) which additionally also recombinantly expresses mtAeq. Antagonism against the adrenoreceptor α2B was tested using a recombinant human α2B receptor CHO cell line (PerkinElmer Life Sciences) which additionally also recombinantly expresses mtAeq. Antagonism against the adrenoreceptor α2C was tested using a recombinant human α2C receptor CHO cell line which additionally also recombinantly expresses a chimaric G protein (Gαqi3) and mtOb (mitochondrial obelin).The cells were cultivated at 37° C. and 5% CO2 in Dulbecco's modified Eagle's Medium/NUT mix F12 with L-glutamine which additionally contains 10% (v/v) inactivated foetal calf serum, 1 mM sodium pyruvate, 0.9 mM sodium bicarbonate, 50 U/ml penicillin, 50 μg/ml streptomycin, 2.5 μg/ml amphotericin B and 1 mg/ml Geneticin. The cells were passaged with enzyme-free Hank's-based cell dissociation buffer. All cell culture reagents used were from Invitrogen (Carlsbad, USA).
smiles,measurement,value
"O=C(c1ccc(N2CC3(COC3)C2)nc1)N1CCC(N2CCc3ccccc3C2)CC1 [US9624198, 10]",IC50,11 nM
